{"source": "paper PMC3978604", "about": "(Arthritis Research & Therapy, 2013)", "key": {"[1]": {"system": "panel of 392 wild-type (non-mutant) protein kinases", "test": "KINOMEscan ATP binding site competition assay, kinase panel selectivity", "conditions": "including JAK and vascular endothelial growth factor receptor; data not shown"}, "[2]": {"biological_target": "SYK (Homo sapiens, UniProt P43405)", "test": "Whole blood assays of SYK inhibition", "format": "cell-based"}, "[3]": {"biological_target": "JAK3 (Homo sapiens, UniProt P52333)", "sequence (P52333 811-1124 limits assumed)": "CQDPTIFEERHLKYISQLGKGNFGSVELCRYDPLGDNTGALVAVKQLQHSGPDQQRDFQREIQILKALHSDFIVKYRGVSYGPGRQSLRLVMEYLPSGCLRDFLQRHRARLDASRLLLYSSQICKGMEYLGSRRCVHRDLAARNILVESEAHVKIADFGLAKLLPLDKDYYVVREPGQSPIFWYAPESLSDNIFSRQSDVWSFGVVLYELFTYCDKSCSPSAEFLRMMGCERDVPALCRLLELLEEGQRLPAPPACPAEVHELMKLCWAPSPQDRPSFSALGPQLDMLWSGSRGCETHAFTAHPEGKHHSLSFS", "test": "KINOMEscan ATP binding site competition assay", "conditions": "1 μM compound; truncated recombinant JAK3"}, "[4]": {"test": "Pharmacokinetics after single oral dosing in mouse", "format": "in vivo", "conditions": "plasma"}, "[5]": {"system": "human PBMCs, CD3+ T cells", "test": "IL-2-induced STAT5 phosphorylation in CD3+ T cells (flow cytometry)", "format": "cell-based", "conditions": "for effect on phosphorylation of STAT5: at 1 μM, IL-2 stimulated CD3+ T cells", "description": "(§2) Human PBMCs were pre-incubated with compound for 30 minutes followed by 20 minutes stimulation with IL-2 (100 ng/ml) for signal transducers and activators of transcription 5 (STAT5) phosphorylation or IFNγ (100 ng/ml) for STAT1 phosphorylation."}, "[6]": {"system": "human B cells", "test": "TLR9-mediated plasmablast differentiation (ODN2006 + IL-2, 6 days)", "format": "cell-based", "experimental": "Human B cells were differentiated with ODN2006 (50 nM) and IL-2 (10 ng/ml) for 6 days. The differentiated cells were stained with V450 anti-CD38, FITC anti-CD20, PE anti-CD19 and APC intracellular IgM. The plasmablasts were identified as CD19^+CD38^+CD20^–IgM^+ cells. The production of IgG and IgM was quantitated by AlphaLISA."}, "[7]": {"system": "human monocytes", "test": "cells", "conditions": "Monocyte", "experimental": "Peripheral blood mononuclear cells (PBMCs) were isolated by centrifugation from heparinized blood in a Vacutainer CPT Cell Preparation Tube (BD Biosciences). PBMCs were cultured for 1 to 2 hours to allow monocytes to adhere, and nonadherent cells were washed away. The monocytes were stimulated with human IgG-coated (Jackson Immunology, West Grove, PA, USA) copolymer microsphere beads (Thermo Scientific, Fremont, CA, USA) or lipopolysaccharide (1 ng/ml; Sigma-Aldrich) for 4 hours. TNFα levels in supernatants were determined by enzyme-linked immunosorbent assay kits (BD Biosciences)."}, "[8]": {"system": "JAK1", "test": "KINOMEscan ATP binding site competition assay", "conditions": "1 μM compound; truncated recombinant JAK1"}, "[9]": {"system": "human PBMCs, CD14+ monocytes", "test": "IFNγ-induced STAT1 phosphorylation in CD14+ monocytes (flow cytometry)", "format": "cell-based", "conditions": "IFNγ-treated CD14+ monocytes; except at the highest concentration tested (10 μM)", "description": "as §2"}, "[10]": {"system": "Ramos cells", "test": "Western blot of anti-IgM induced phosphorylation of BTK, PLCγ2, AKT and ERK", "conditions": "1 μM pretreatment", "excerpt": "The protein phosphorylation was detected with rabbit antibodies of anti-phospho-BTK(Y223) (Epitomics Inc., Burlingame, CA, USA), anti-phospho-PLCγ2(Y1217), anti-phospho-ERK(T202/Y204) or anti-phospho-AKT(S473)."}, "[11]": {"system": "human whole blood", "test": "cells", "conditions": "B-cell, read-out: IC50, BCR-dependent cell surface CD69 expression in CD20+ B cells", "experimental": "(§1) The samples were stained with PE mouse anti-human CD20 and APC mouse anti-human CD69. The percentage of activated (CD69^hi) B cells was determined using unstimulated (negative control) and stimulated (positive control) samples as references."}, "[12]": {"system": "human PBMCs", "test": "cells", "conditions": "PBMC, read-out: IC50, BCR-dependent cell surface CD69 expression in CD20+ B cells", "experimental": "as §1"}, "[13]": {"system": "mouse whole blood B220+ B cells", "test": "Ex vivo anti-IgD-induced CD69 expression on B220+ B cells in whole blood of dosed CIA mice", "conditions": "2 and 5 hours post dose"}, "[14]": {"system": "mouse bone marrow macrophages", "test": "RANK-L/M-CSF mediated osteoclastogenesis, TRAP+ multinuclear cells", "format": "cell-based", "conditions": "in the presence of more than 0.4 μM", "experimental": "Bone marrow cells were obtained from C57BL/6 mouse tibiae and suspended in culture medium supplemented with monocyte colony-stimulating factor (100 ng/ml) for 16 hours. […] The cells were stained using a tartrate-resistant acid phosphate (TRAP) staining kit (Sigma, St Louis, MO, USA). TRAP^+ multinuclear cells were counted for each well under a microscope."}, "[15]": {"system": "DBA1/J mice with collagen-induced arthritis", "test": "Murine collagen-induced arthritis model (mCIA)", "format": "in vivo, mouse", "experimental": "The mCIA model has been reported previously. Briefly, DBA1/J male mice were injected intradermally with 0.1 ml bovine type II collagen (100 μg; Chondrex Inc., Redmond, WA, USA) and complete Freund’s adjuvant (200 μg; Difco, Detroit, MI, USA) followed by second immunization on day 21 with bovine type II collagen and incomplete Freund adjuvant. […] Clinical arthritis scores (1 to 4) of individual paws were assessed and the arthritic index for each mouse was determined by adding the individual scores of all four paws. The level of cytokines in serum was determined by Luminex analysis (Millipore, Billerica, MA, USA). Hind paws from CIA mice were collected into 10% neutral buffered formalin. After decalcification in 10% formic acid, paws were embedded in paraffin, sectioned at 8 μm and stained with toluidine blue. Inflammation (infiltration of inflammatory cells), pannus, cartilage damage, and bone resorption were scored in a double-blinded fashion by a board-certified pathologist at Boulder BioPATH, Inc. (Boulder, CO, USA) using standard criteria, with 0 being normal and 5 being the most severe."}, "[16]": {"system": "Jurkat T-cell line", "test": "Anti-CD3-induced calcium flux (FLIPR)", "format": "cell-based", "conditions": "Homo sapiens, read-out: IC50, T-cell receptor (anti-CD3)-induced calcium flux"}, "[17]": {"system": "human plasmacytoid dendritic cells", "test": "TLR9-mediated pDC activation (ODN2216, 2 days)", "format": "cell-based", "conditions": "human pDCs, concentration-dependent", "experimental": "Human plasmacytoid dendritic cells (pDCs) were isolated by negative selection from PBMCs with the human pDC Isolation Kit (Miltenyi Biotec, Auburn, CA, USA). The purity was confirmed with CD303 (BDCA-2; Miltenyi Biotec) staining and stimulated with ODN2216 (1 μM) for 2 days. The production of IFNα and TNFα was measured by AlphaLISA."}, "[18]": {"system": "Ramos B-cell line", "test": "cells", "conditions": "Homo sapiens, read-out: IC50, anti-IgM-activated calcium flux", "experimental": "Baseline fluorescence was recorded for about 20 seconds followed by stimulation with mouse anti-human IgM (10 μg/ml, clone M2E6; Antibody Solutions Inc., Mountain View, CA, USA) for Ramos cells or mouse anti-human CD3 (10 μg/ml; BD Biosciences) for Jurkat cells, and the maximal fluorescent counts in each well were recorded."}, "[19]": {"system": "human mast cells", "test": "cells", "conditions": "Mast cell, read-out: IC50, IgE/antigen-induced histamine release", "experimental": "The method has been reported previously by our group. […] For measuring histamine release, cells were sensitized with 0.1 μg/ml anti-4-hydroxy-3-nitrophenylacetyl hapten IgE (Serotec, Raleigh, NC, USA) overnight, and then cross-linked with 1 μg/ml NP(30)-BSA (Biosearch Technologies, Novato, CA, USA) for 30 minutes. Supernatants were collected and assayed for histamine release using a histamine enzyme immunoassay (Oxford Biomedical Research, Rochester Hills, MI, USA). The percentage of histamine release was calculated by comparing various treatments with positive control."}}, "note": "Read-outs that look alike come from different tables or passages of the source."}
{"smiles": "COc1cc(Nc2ncc(F)c(Nc3ccc4c(n3)N(COP(=O)(O)O)C(=O)C(C)(C)O4)n2)cc(OC)c1OC", "note": "[R788]", "values": [{"measurement": "kinase selectivity in the KinaseScan assay", "setting": "[1]", "value": "inhibiting one-half of the kinome"}, {"measurement": "SYK inhibition in whole blood assays", "setting": "[2]", "value": "relatively weak"}]}
{"smiles": "Cc1ccc(Nc2cc(N[C@@H]3CCCC[C@@H]3N)nnc2C(N)=O)nc1C", "note": "[RO9021, 6-[(1R,2S)-2-amino-cyclohexylamino]-4-(5,6-dimethyl-pyridin-2-ylamino)-pyridazine-3-carboxylic acid amide]", "values": [{"measurement": "competition with compound (JAK3)", "setting": "[3]", "value": "more than 90%"}, {"measurement": "AUC", "setting": "[4]; single oral dose 5 mg/kg", "value": 3.85, "unit": "µM·h"}, {"measurement": "Cmax", "setting": "[4]; single oral dose 5 mg/kg", "value": 0.695, "unit": "µM"}, {"measurement": "Tmax", "setting": "[4]; single oral dose 5 mg/kg", "value": 1, "unit": "h"}, {"measurement": "half-life", "setting": "[4]; single oral dose 5 mg/kg", "value": 4.34, "unit": "h"}, {"measurement": "AUC", "setting": "[4]; single oral dose 45 mg/kg", "value": 35.8, "unit": "µM·h"}, {"measurement": "Cmax", "setting": "[4]; single oral dose 45 mg/kg", "value": 5.76, "unit": "µM"}, {"measurement": "Tmax", "setting": "[4]; single oral dose 45 mg/kg", "value": 0.5, "unit": "h"}, {"measurement": "half-life", "setting": "[4]; single oral dose 45 mg/kg", "value": 3.54, "unit": "h"}, {"measurement": "IC50", "setting": "[5]; Homo sapiens, T-cell, read-out: IC50, IL-2-induced STAT5 phosphorylation", "value": "1320 ± 660", "unit": "nM"}, {"measurement": "effect on phosphorylation of STAT5", "setting": "[5]", "value": "no significant effect"}, {"measurement": "production of IL-6 in the supernatant", "setting": "[6]", "value": "reduced"}, {"measurement": "production of IgG in the supernatant", "setting": "[6]", "value": "reduced"}, {"measurement": "production of IgM in the supernatant", "setting": "[6]", "value": "reduced"}, {"measurement": "IC50", "setting": "[7]; 4 h, read-out: IC50, TNFα production induced by crosslinking of FcγR", "value": "63 ± 19", "unit": "nM"}, {"measurement": "IC50", "setting": "[7]; read-out: IC50, TLR4-dependent TNFα production", "value": "2900 ± 900", "unit": "nM"}, {"measurement": "competition with compound (JAK1)", "setting": "[8]", "value": "more than 90%"}, {"measurement": "effect on phosphorylation of STAT1", "setting": "[9]", "value": "no effect"}, {"measurement": "anti-IgM induced phosphorylation of BTK, PLCγ2, AKT and ERK", "setting": "[10]", "value": "inhibited"}, {"measurement": "IC50", "setting": "[11]", "value": 87, "unit": "nM"}, {"measurement": "IC50", "setting": "[12]", "value": 83, "unit": "nM"}, {"measurement": "anti-IgD-induced CD69 expression on B cells (B220+), ex vivo", "setting": "[13]", "value": "inhibited"}, {"measurement": "TRAP+ cells", "setting": "[14]", "value": "barely detectable"}, {"measurement": "histopathology of hind paws (inflammation, pannus, cartilage damage, bone resorption)", "setting": "[15]; 5 and 45 mg/kg orally daily for 14 days", "value": "vehicle-treated, but not RO9021-treated, mice had severe inflammation and cartilage damage"}, {"measurement": "arthritis progression, clinical scores", "setting": "[15]; 5 and 45 mg/kg orally daily for 14 days from day 21, significant in both groups vs vehicle", "value": "inhibited arthritis progression in a dose-dependent manner"}, {"measurement": "serum level of IL-6", "setting": "[15]; after 14 days of treatment", "value": "markedly reduced"}, {"measurement": "serum level of KC(CXCL1)", "setting": "[15]; after 14 days of treatment", "value": "markedly reduced"}, {"measurement": "IC50", "setting": "[16]", "value": "910 ± 270", "unit": "nM"}, {"measurement": "production of IFNα", "setting": "[17]", "value": "inhibited"}, {"measurement": "production of TNFα", "setting": "[17]", "value": "inhibited"}, {"measurement": "IC50", "setting": "[18]", "value": "78 ± 21", "unit": "nM"}, {"measurement": "IC50", "setting": "[19]", "value": "22.8 ± 1.7", "unit": "nM"}]}
{"smiles": "C[C@@H]1CCN(C(=O)CC#N)C[C@@H]1N(C)c1ncnc2[nH]ccc12", "note": "[tofacitinib, reference compound]", "values": [{"measurement": "effect on phosphorylation of STAT5", "setting": "[5]", "value": "completely blocked"}]}
